Source: the supplement of paper PMC10733146

How the values were obtained:
Experiment in all cases: viability relative to DMSO control (fraction); higher = less drug effect (more viable cells)
Conditions in all cases: 48 h
[1] = tested on: primary FL patient cells (S087)
In short: (§1)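 In 384-well plates with compounds pre-plated at five concentrations (one well per concentration), primary mononuclear tumour cells were plated at 4 × 10^4 cells per well. The cells came from blood or bone marrow by Ficoll isolation or from processed lymph node, and were used fresh or cryopreserved. Culture ran for 48 h at 37 °C and 5% CO2 in RPMI-1640 containing penicillin/streptomycin, L-glutamine and human serum. Viability was read as CellTiter-Glo luminescence, normalised to the median of 16 inner DMSO wells.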

[2] = tested on: primary AML patient cells (S009)
In short: as §1

[3] = tested on: primary MCL patient cells (S063)
In short: as §1

[4] = tested on: primary AML patient cells (S079)
In short: as §1

[5] = tested on: primary ALL patient cells (S048)
In short: as §1

[6] = tested on: primary MCL patient cells (S068)
In short: as §1

[7] = tested on: primary AML patient cells (S055)
In short: as §1

[8] = tested on: primary AML patient cells (S091)
In short: as §1

[9] = tested on: primary CLL patient cells (S031)
In short: as §1

[10] = tested on: primary AML patient cells (S006)
In short: as §1

[11] = tested on: primary FL patient cells (S022)
In short: as §1

[12] = tested on: primary MCL patient cells (S041)
In short: as §1

[13] = tested on: primary AML patient cells (S072)
In short: as §1

[14] = tested on: primary AML patient cells (S037)
In short: as §1

[15] = tested on: primary AML patient cells (S056)
In short: as §1

[16] = tested on: primary AML patient cells (S089)
In short: as §1

[17] = tested on: primary AML patient cells (S012)
In short: as §1

[18] = tested on: primary T-PLL patient cells (S008)
In short: as §1

[19] = tested on: primary DLBCL patient cells (S082)
In short: as §1

[20] = tested on: primary MCL patient cells (S053)
In short: as §1

`CNC(=O)c1cc(Oc2ccc(NC(=O)Nc3ccc(Cl)c(C(F)(F)F)c3)cc2)ccn1` [Sorafenib] showed a viability ([1]; 0.024 µM) of 1.01, a viability ([1]; 0.12 µM) of 1.04 and a viability ([1]; 0.6 µM) of 1.08. For the same compound, the viability ([1]; 3 µM) was 1.06, the viability ([1]; 15 µM) was 1.04 and the viability ([2]; 0.024 µM) was 0.947. For the same compound, the viability ([2]; 0.12 µM) was 0.828, the viability ([2]; 0.6 µM) was 0.869 and the viability ([2]; 3 µM) was 0.985. For the same compound, the viability ([2]; 15 µM) was 0.906, the viability ([3]; 0.024 µM) was 0.98 and the viability ([3]; 0.12 µM) was 1.02. For the same compound, the viability ([3]; 0.6 µM) was 0.973, the viability ([3]; 3 µM) was 1.06 and the viability ([3]; 15 µM) was 1.02. For the same compound, the viability ([4]; 0.024 µM) was 0.99, the viability ([4]; 0.12 µM) was 1.02 and the viability ([4]; 0.6 µM) was 1.04. For the same compound, the viability ([4]; 3 µM) was 1.1, the viability ([4]; 15 µM) was 0.791 and the viability ([5]; 0.024 µM) was 0.874. The viability ([5]; 0.12 µM) was 1, the viability ([5]; 0.6 µM) was 0.889 and the viability ([5]; 3 µM) was 0.894. For the same compound, the viability ([5]; 15 µM) was 1.03, the viability ([6]; 0.024 µM) was 0.919 and the viability ([6]; 0.12 µM) was 1.03. For the same compound, the viability ([6]; 0.6 µM) was 1.03, the viability ([6]; 3 µM) was 1.22 and the viability ([6]; 15 µM) was 1.66. The viability ([7]; 0.024 µM) was 0.971, the viability ([7]; 0.12 µM) was 1.04 and the viability ([7]; 0.6 µM) was 1.02. It also gave a viability ([7]; 3 µM) of 1.08, a viability ([7]; 15 µM) of 1.04 and a viability ([8]; 0.024 µM) of 0.929. It also gave a viability ([8]; 0.12 µM) of 1.13, a viability ([8]; 0.6 µM) of 1.34 and a viability ([8]; 3 µM) of 1.98. The viability ([8]; 15 µM) was 1.46, the viability ([9]; 0.024 µM) was 1.01 and the viability ([9]; 0.12 µM) was 1.02. The viability ([9]; 0.6 µM) was 1.13, the viability ([9]; 3 µM) was 1.02 and the viability ([9]; 15 µM) was 1.04. The viability ([10]; 0.024 µM) was 0.709, the viability ([10]; 0.12 µM) was 0.508 and the viability ([10]; 0.6 µM) was 0.413. The viability ([10]; 3 µM) was 0.423, the viability ([10]; 15 µM) was 0.378 and the viability ([11]; 0.024 µM) was 1.05. It also gave a viability ([11]; 0.12 µM) of 1.01, a viability ([11]; 0.6 µM) of 1.06 and a viability ([11]; 3 µM) of 0.999. The viability ([11]; 15 µM) was 1, the viability ([12]; 0.024 µM) was 0.981 and the viability ([12]; 0.12 µM) was 1.01. For the same compound, the viability ([12]; 0.6 µM) was 1.04, the viability ([12]; 3 µM) was 1.05 and the viability ([12]; 15 µM) was 0.95. For the same compound, the viability ([13]; 0.024 µM) was 1.02, the viability ([13]; 0.12 µM) was 1.04 and the viability ([13]; 0.6 µM) was 0.99. It also gave a viability ([13]; 3 µM) of 1.04, a viability ([13]; 15 µM) of 1.01 and a viability ([14]; 0.024 µM) of 0.961. For the same compound, the viability ([14]; 0.12 µM) was 1.06, the viability ([14]; 0.6 µM) was 1.05 and the viability ([14]; 3 µM) was 1.05. It also gave a viability ([14]; 15 µM) of 1.09, a viability ([15]; 0.024 µM) of 0.642 and a viability ([15]; 0.12 µM) of 0.488. It also gave a viability ([15]; 0.6 µM) of 0.443, a viability ([15]; 3 µM) of 0.453 and a viability ([15]; 15 µM) of 0.374. For the same compound, the viability ([16]; 0.024 µM) was 0.847, the viability ([16]; 0.12 µM) was 0.645 and the viability ([16]; 0.6 µM) was 0.822. The viability ([16]; 3 µM) was 0.973, the viability ([16]; 15 µM) was 0.587 and the viability ([17]; 0.024 µM) was 0.958. The viability ([17]; 0.12 µM) was 0.991, the viability ([17]; 0.6 µM) was 1.05 and the viability ([17]; 3 µM) was 1.01. For the same compound, the viability ([17]; 15 µM) was 1.09, the viability ([18]; 0.024 µM) was 0.955 and the viability ([18]; 0.12 µM) was 0.997. For the same compound, the viability ([18]; 0.6 µM) was 1.02, the viability ([18]; 3 µM) was 0.973 and the viability ([18]; 15 µM) was 0.948. For the same compound, the viability ([19]; 0.024 µM) was 1, the viability ([19]; 0.12 µM) was 1.02 and the viability ([19]; 0.6 µM) was 1.03. It also gave a viability ([19]; 3 µM) of 1.18 and a viability ([19]; 15 µM) of 1.35.
`O=C(O)CSc1cc(NS(=O)(=O)c2ccc(Br)cc2)c2ccccc2c1O` [UMI-77] showed a viability ([1]; 0.024 µM) of 0.936, a viability ([1]; 0.12 µM) of 0.937 and a viability ([1]; 0.6 µM) of 0.923. It also gave a viability ([1]; 3 µM) of 0.876, a viability ([1]; 15 µM) of 0.256 and a viability ([2]; 0.024 µM) of 0.914. For the same compound, the viability ([2]; 0.12 µM) was 0.914, the viability ([2]; 0.6 µM) was 0.802 and the viability ([2]; 3 µM) was 0.571. For the same compound, the viability ([2]; 15 µM) was 0.0548, the viability ([3]; 0.024 µM) was 1.06 and the viability ([3]; 0.12 µM) was 1.05. The viability ([3]; 0.6 µM) was 0.974, the viability ([3]; 3 µM) was 0.963 and the viability ([3]; 15 µM) was 0.701. For the same compound, the viability ([4]; 0.024 µM) was 0.917, the viability ([4]; 0.12 µM) was 0.932 and the viability ([4]; 0.6 µM) was 0.997. The viability ([4]; 3 µM) was 0.989, the viability ([4]; 15 µM) was 0.79 and the viability ([5]; 0.024 µM) was 0.913. It also gave a viability ([5]; 0.12 µM) of 0.88, a viability ([5]; 0.6 µM) of 0.742 and a viability ([5]; 3 µM) of 0.582. For the same compound, the viability ([5]; 15 µM) was 0.128, the viability ([6]; 0.024 µM) was 0.957 and the viability ([6]; 0.12 µM) was 0.817. For the same compound, the viability ([6]; 0.6 µM) was 0.767, the viability ([6]; 3 µM) was 0.666 and the viability ([6]; 15 µM) was 0.318. It also gave a viability ([8]; 0.024 µM) of 1.02, a viability ([8]; 0.12 µM) of 1.03 and a viability ([8]; 0.6 µM) of 1.13. It also gave a viability ([8]; 3 µM) of 1.32, a viability ([8]; 15 µM) of 0.996 and a viability ([9]; 0.024 µM) of 0.84. The viability ([9]; 0.12 µM) was 0.875, the viability ([9]; 0.6 µM) was 0.886 and the viability ([9]; 3 µM) was 0.878. The viability ([9]; 15 µM) was 0.73, the viability ([10]; 0.024 µM) was 1.07 and the viability ([10]; 0.12 µM) was 1.04. The viability ([10]; 0.6 µM) was 0.979, the viability ([10]; 3 µM) was 1.01 and the viability ([10]; 15 µM) was 0.467. For the same compound, the viability ([11]; 0.024 µM) was 0.967, the viability ([11]; 0.12 µM) was 0.981 and the viability ([11]; 0.6 µM) was 0.913. For the same compound, the viability ([11]; 3 µM) was 0.897, the viability ([11]; 15 µM) was 0.521 and the viability ([12]; 0.024 µM) was 0.968. The viability ([12]; 0.12 µM) was 0.986, the viability ([12]; 0.6 µM) was 0.955 and the viability ([12]; 3 µM) was 0.929. It also gave a viability ([12]; 15 µM) of 0.331, a viability ([13]; 0.024 µM) of 0.956 and a viability ([13]; 0.12 µM) of 0.949. The viability ([13]; 0.6 µM) was 0.94, the viability ([13]; 3 µM) was 0.994 and the viability ([13]; 15 µM) was 0.777. For the same compound, the viability ([14]; 0.024 µM) was 1.05, the viability ([14]; 0.12 µM) was 1.04 and the viability ([14]; 0.6 µM) was 0.985. The viability ([14]; 3 µM) was 0.978, the viability ([14]; 15 µM) was 0.633 and the viability ([15]; 0.024 µM) was 0.838. The viability ([15]; 0.12 µM) was 0.998, the viability ([15]; 0.6 µM) was 0.836 and the viability ([15]; 3 µM) was 0.999. It also gave a viability ([15]; 15 µM) of 0.434, a viability ([16]; 0.024 µM) of 0.835 and a viability ([16]; 0.12 µM) of 0.672. The viability ([16]; 0.6 µM) was 0.737, the viability ([16]; 3 µM) was 1.03 and the viability ([16]; 15 µM) was 0.998. The viability ([20]; 0.024 µM) was 1.07, the viability ([20]; 0.12 µM) was 0.99 and the viability ([20]; 0.6 µM) was 0.818. It also gave a viability ([20]; 3 µM) of 0.873, a viability ([20]; 15 µM) of 0.191 and a viability ([17]; 0.024 µM) of 1.07. It also gave a viability ([17]; 0.12 µM) of 1.06, a viability ([17]; 0.6 µM) of 1.09 and a viability ([17]; 3 µM) of 1.04. The viability ([17]; 15 µM) was 0.715, the viability ([18]; 0.024 µM) was 0.976 and the viability ([18]; 0.12 µM) was 0.968. For the same compound, the viability ([18]; 0.6 µM) was 0.91, the viability ([18]; 3 µM) was 0.948 and the viability ([18]; 15 µM) was 0.815. The viability ([19]; 0.024 µM) was 0.995, the viability ([19]; 0.12 µM) was 1.02 and the viability ([19]; 0.6 µM) was 0.846. It also gave a viability ([19]; 3 µM) of 0.908 and a viability ([19]; 15 µM) of 0.595.
